Measurements from patent publication US9249152B2, “Cyano containing azabenzofuran compounds for the treatment of hepatitis C” (BRISTOL-MYERS SQUIBB COMPANY, priority 2014, dated 2016).
Where two headings read alike, the source gives them in different places.

Test system: genotype 1b (Con-1) HCV replicon
Assay: HCV replicon luciferase assay, genotype 1b (Con-1)
Type: cell-based
Settings: genotype 1b HCV replicon, Huh-7 cells, Renilla luciferase, 3 days
Method: The cell lines used to evaluate compounds consist of a human hepatocyte derived cell line (Huh-7) that constitutively expresses a genotype 1b (Con-1) HCV replicon or a genotype 1b (Con-1) HCV replicon with an asparagine replacing the cysteine at amino acid 316, or a genotype 2a (JFH-1) replicon, containing a Renilla luciferase reporter gene. These cells were maintained in Dulbecco's modified Eagle medium (DMEM) containing 10% FBS, 100 U/mL penicillin/streptomycin and 1.0 mg/mL G418.
To evaluate compound efficacy, titrated compounds were transferred to sterile 384-well tissue culture treated plates, and the plates were seeded with HCV replicon cells (50 μL at a density of 2.4×10^3 cells/well) in DMEM containing 4% FBS (final DMSO concentration at 0.5%). After 3 days incubation at 37° C., cells were analyzed for Renilla Luciferase activity using the EnduRen substrate (Promega cat #E6485) according to the manufacturer's directions. Briefly, the EnduRen substrate was diluted in DMEM and then added to the plates to a final concentration of 7.5 μM. The plates were incubated for at least 1 h at 37° C. then read on a Viewlux Imager (PerkinElmer) using a luminescence program. The 50% effective concentration (EC50) was calculated using the four-parameter logistic formula noted above.

[1] = Hepatitis C virus, Huh-7, 72 h, read-out: EC50 1b (class)
[2] = Hepatitis C virus, Huh-7, 72 h, read-out: EC50 (uM) 1b

Structure (SMILES) | EC50 [1] | EC50 [2] | EC50 (read-out: EC50 1b (class)) | EC50 (read-out: EC50 (uM) 1b)
CNC(=O)c1c(-c2ccc(F)cc2)oc2nc(NCC(F)(F)F)c(-c3ccc(OC)c(C(=O)NC(C)(C#N)C(C)C)c3)cc12 (stereo not drawn) [Compound K5004] | < 0.1 µM | 0.0028 µM |  | 
CNC(=O)c1c(-c2ccc(F)cc2)oc2nc(CCC(F)(F)F)c(-c3cc(C(=O)NC(C)(C#N)C4CC4)ccc3F)cc12 (stereo not drawn) [Compound 15001] | < 0.1 µM |  |  | 
CNC(=O)c1c(-c2ccc(F)cc2)oc2nc(CCC(F)(F)F)c(-c3ccc(OC)c(C(=O)NC4(C#N)CC4)c3)cc12 [Compound K6001] | < 0.1 µM |  |  | 
CNC(=O)c1c(-c2ccc(F)cc2)oc2nc(CCC(F)(F)F)c(-c3cc(Cl)c(Cl)c(C(=O)NC(C)(C)C#N)c3)cc12 [Compound 16001] | < 0.1 µM |  |  | 
CNC(=O)c1c(-c2ccc(F)cc2)oc2nc(NCC(F)(F)C(F)(F)F)c(-c3cccc(C(=O)NC4(C#N)CCCC4)c3)cc12 [Compound 30003] | < 0.1 µM |  |  | 
CNC(=O)c1c(-c2ccc(F)cc2)oc2nc(CCC(F)(F)F)c(-c3cccc(C(=O)NC4(C#N)CCCC4)c3)cc12 [Compound 11003] | < 0.1 µM | 0.0046 µM |  | 
CNC(=O)c1c(-c2ccc(F)cc2)oc2nc(NCC(F)(F)F)c(-c3ccc(F)c(C(=O)NC(C)(C#N)C4CC4)c3)cc12 (stereo not drawn) [Compound 22004] | < 0.1 µM | 0.004 µM |  | 
CNC(=O)c1c(-c2ccc(F)cc2)oc2nc(NCC(F)(F)F)c(-c3cccc(C(=O)NC4(C#N)CC4)c3)cc12 [Compound K4003] | < 0.1 µM | 0.0043 µM |  | 
CNC(=O)c1c(-c2ccc(F)cc2)oc2nc(NCC(F)(F)F)c(-c3ccc(OC)c(C(=O)NC4(C#N)CCCC4)c3)cc12 [Compound K5003] | < 0.1 µM |  |  | 
CC[C@H](C)c1nc2oc(-c3ccc(F)cc3)c(C(=O)NC)c2cc1-c1cccc(C(=O)NC(C)(C)C#N)c1 [Compound K11001] | < 0.1 µM | 0.0133 µM |  | 
CNC(=O)c1c(-c2ccc(F)cc2)oc2nc(CCC(F)(F)F)c(-c3cnc(OC)c(C(=O)NC4(C#N)CCCC4)c3)cc12 [Compound K7004] | < 0.1 µM |  |  | 
CNC(=O)c1c(-c2ccc(F)cc2)oc2nc(CCC(F)(F)F)c(-c3cc(F)cc(C(=O)NC(C)(C)C#N)c3)cc12 [Compound 14001] | < 0.1 µM | 0.0022 µM |  | 
CNC(=O)c1c(-c2ccc(F)cc2)oc2nc(CCC(F)(F)F)c(-c3ccc(F)c(C(=O)NC(C)C#N)c3)cc12 (stereo not drawn) [Compound 13005] |  |  | < 0.1 µM | 
CNC(=O)c1c(-c2ccc(F)cc2)oc2nc(CCC(F)(F)F)c(-c3ccc(OC)c(C(=O)NC(C)(C#N)C(C)C)c3)cc12 (stereo not drawn) [Compound 12004] | < 0.1 µM | 0.0033 µM |  | 
CNC(=O)c1c(-c2ccc(F)cc2)oc2nc(NCC(F)(F)F)c(-c3cc(Cl)c(NCC(F)(F)F)c(C(=O)NC(C)(C)C#N)c3)cc12 [Compound 24001] | < 0.1 µM | 0.0539 µM |  | 
CNC(=O)c1c(-c2ccc(F)cc2)oc2nc(CCC(F)(F)F)c(-c3cccc(C(=O)NC(C)(C#N)C4CC4)c3)cc12 (stereo not drawn) [Compound 11005] | < 0.1 µM |  |  | 
CC[C@@H](C)c1nc2oc(-c3ccc(F)cc3)c(C(=O)NC)c2cc1-c1cccc(C(=O)NC(C)(C)C#N)c1 [Compound K11002] | < 0.1 µM | 0.0044 µM |  | 
CNC(=O)c1c(-c2ccc(F)cc2)oc2nc(CCC(F)(F)F)c(-c3ccc(F)c(C(=O)NC(C)C#N)c3)cc12 (stereo not drawn) [Compound 13003] | < 0.1 µM |  |  | 
CNC(=O)c1c(-c2ccc(F)cc2)oc2nc(NCC(F)(F)C(F)(F)F)c(-c3cccc(C(=O)NC(C)(C)C#N)c3)cc12 [Compound 30001] | < 0.1 µM |  |  | 
CNC(=O)c1c(-c2ccc(F)cc2)oc2nc(NCC(F)(F)F)c(-c3cccc(C(=O)NC4(C#N)CCC4)c3)cc12 [Compound K4002] | < 0.1 µM |  |  | 
CNC(=O)c1c(-c2ccc(F)cc2)oc2nc(NCC(F)(F)F)c(-c3cccc(C(=O)NC(C)(C#N)C4CC4)c3)cc12 (stereo not drawn) [Compound 20006] | < 0.1 µM | 0.0031 µM |  | 
CNC(=O)c1c(-c2ccc(F)cc2)oc2nc(NCC(F)(F)F)c(-c3cccc(C(=O)NC(C)(C#N)C4CC4)c3)cc12 (stereo not drawn) [Compound 20007] |  |  | < 0.1 µM | 
CNC(=O)c1c(-c2ccc(F)cc2)oc2nc(NCC(F)(F)F)c(-c3cccc(C(=O)NC(C)C#N)c3)cc12 (stereo not drawn) [Compound 20003] |  |  | < 0.1 µM | 
CNC(=O)c1c(-c2ccc(F)cc2)oc2nc(CCC(F)(F)F)c(-c3cccc(C(=O)NC(C)(C#N)C(C)C)c3)cc12 (stereo not drawn) [Compound 11004] | < 0.1 µM |  |  | 
CNC(=O)c1c(-c2ccc(F)cc2)oc2nc(Cl)c(-c3cccc(C(=O)NC4(C#N)CCC4)c3)cc12 [Compound 10005] | < 0.1 µM |  |  | 
CNC(=O)c1c(-c2ccc(F)cc2)oc2nc(NCC(F)(F)F)c(-c3ccc(F)c(C(=O)NC(C)C#N)c3)cc12 (stereo not drawn) [Compound 22002] |  |  | < 0.1 µM | 

Structure (SMILES) | EC50 [1] | EC50 [2] | EC50 (read-out: EC50 1b (class)) | EC50 (read-out: EC50 (uM) 1b)
CNC(=O)c1c(-c2ccc(F)cc2)oc2nc(CCC(F)(F)F)c(-c3ccc(F)c(C(=O)NC(C)(C#N)C4CC4)c3)cc12 (stereo not drawn) [Compound 13006] | < 0.1 µM | 0.0036 µM |  | 
CNC(=O)c1c(-c2ccc(F)cc2)oc2nc(NCC(F)(F)F)c(-c3ccc(F)c(C(=O)NC(C)(C#N)C(C)C)c3)cc12 (stereo not drawn) [Compound K2005] | < 0.1 µM |  |  | 
CNC(=O)c1c(-c2ccc(F)cc2)oc2nc(Cl)c(-c3cccc(C(=O)NC4(C#N)CCCC4)c3)cc12 [Compound 10006] | < 0.1 µM | 0.076 µM |  | 
CNC(=O)c1c(-c2ccc(F)cc2)oc2nc(NCC(F)(F)C(F)(F)F)c(-c3ccc(OC)c(C(=O)NC(C)(C#N)C4CC4)c3)cc12 (stereo not drawn) [Compound 31002] | < 0.1 µM | 0.0061 µM |  | 
CNC(=O)c1c(-c2ccc(F)cc2)oc2nc(NCC(F)(F)F)c(-c3ccc(F)c(C(=O)NC(C)(C)C#N)c3)cc12 [Compound K2001] | < 0.1 µM |  |  | 
CNC(=O)c1c(-c2ccc(F)cc2)oc2nc(Cl)c(-c3ccc(OC)c(C(=O)NC(C)(C)C#N)c3)cc12 [Compound 10001] | < 0.1 µM | 0.0738 µM |  | 
CNC(=O)c1c(-c2ccc(F)cc2)oc2nc(Cl)c(-c3ccc(OC)c(C(=O)NC4(C#N)CCCC4)c3)cc12 [Compound 10003] | < 0.1 µM |  |  | 
CNC(=O)c1c(-c2ccc(F)cc2)oc2nc(NCC(F)(F)C(F)(F)F)c(-c3cccc(C(=O)NC(C)(C#N)C(C)C)c3)cc12 (stereo not drawn) [Compound 30002] | < 0.1 µM | 0.0394 µM |  | 
CNC(=O)c1c(-c2ccc(F)cc2)oc2nc(NCC(F)(F)F)c(-c3cnc(OC)c(C(=O)NC4(C#N)CC4)c3)cc12 [Compound K8003] | < 0.1 µM |  |  | 
CNC(=O)c1c(-c2ccc(F)cc2)oc2nc(CCC(F)(F)F)c(-c3cccc(C(=O)NC(C)(C#N)C4CC4)c3)cc12 (stereo not drawn) [Compound 11007] |  |  | < 0.1 µM | 0.0027 µM
CNC(=O)c1c(-c2ccc(F)cc2)oc2nc(NCC(F)(F)F)c(-c3cnc(OC)c(C(=O)NC(C)(C)C#N)c3)cc12 [Compound K8001] | < 0.1 µM |  |  | 
CNC(=O)c1c(-c2ccc(F)cc2)oc2nc(Cl)c(-c3ccc(OC)c(C(=O)NC4(C#N)CCC4)c3)cc12 [Compound 10002] | < 0.1 µM |  |  | 
CNC(=O)c1c(-c2ccc(F)cc2)oc2nc(NCC(F)(F)F)c(-c3cccc(C(=O)NC(C)C#N)c3)cc12 (stereo not drawn) [Compound 20004] |  |  | < 0.1 µM | 
CNC(=O)c1c(-c2ccc(F)cc2)oc2nc(NCC(F)(F)F)c(-c3cccc(C(=O)NC(C)C#N)c3)cc12 (stereo not drawn) [Compound 20002] | < 0.1 µM |  |  | 
CNC(=O)c1c(-c2ccc(F)cc2)oc2nc(CCC(F)(F)F)c(-c3cccc(C(=O)NC(C)(C#N)C4CC4)c3)cc12 (stereo not drawn) [Compound 11006] |  | 0.0022 µM | < 0.1 µM | 
CNC(=O)c1c(-c2ccc(F)cc2)oc2nc(CCC(F)(F)F)c(-c3ccc(F)c(C(=O)NC4(C#N)CC4)c3)cc12 [Compound K1001] | < 0.1 µM | 0.0061 µM |  | 
CNC(=O)c1c(-c2ccc(F)cc2)oc2nc(NCC(F)(F)F)c(-c3cccc(C(=O)NC(C)(C)C#N)c3)cc12 [Compound 20001] | < 0.1 µM |  |  | 
CNC(=O)c1c(-c2ccc(F)cc2)oc2nc(CCC(F)(F)F)c(-c3cccc(C(=O)NC4(C#N)CCC4)c3)cc12 [Compound 11002] | < 0.1 µM |  |  | 
CNC(=O)c1c(-c2ccc(F)cc2)oc2nc(NCC(F)(F)F)c(-c3cccc(C(=O)NC(C)(C#N)C4CC4)c3)cc12 (stereo not drawn) [Compound 20008] |  |  | < 0.1 µM | 
CNC(=O)c1c(-c2ccc(F)cc2)oc2nc(CCC(F)(F)F)c(-c3ccc(F)c(C(=O)NC(C)(C)C#N)c3)cc12 [Compound K1003] | < 0.1 µM |  |  | 
CNC(=O)c1c(-c2ccc(F)cc2)oc2nc(Cl)c(-c3cccc(C(=O)NC(C)(C)C#N)c3)cc12 [Compound 10004] | 0.1 to 1 µM | 0.105 µM |  | 
CNC(=O)c1c(-c2ccc(F)cc2)oc2nc(CCC(F)(F)F)c(-c3cc(F)c(F)c(C(=O)NC(C)(C#N)C4CC4)c3)cc12 (stereo not drawn) [Compound 17001] | < 0.1 µM | 0.0018 µM |  | 
CNC(=O)c1c(-c2ccc(F)cc2)oc2nc(CCC(F)(F)F)c(-c3ccc(F)c(C(=O)NC(C)C#N)c3)cc12 (stereo not drawn) [Compound 13004] |  |  | < 0.1 µM | 
CNC(=O)c1c(-c2ccc(F)cc2)oc2nc(NCC(F)(F)F)c(-c3ccc(OC)c(C(=O)NC(C)(C)C#N)c3)cc12 [Compound 21001] | < 0.1 µM |  |  | 
CNC(=O)c1c(-c2ccc(F)cc2)oc2nc(NCC(F)(F)F)c(-c3cccc(C(=O)NC(C)(C#N)C(C)C)c3)cc12 (stereo not drawn) [Compound K4004] | < 0.1 µM | 0.004 µM |  | 
